The text below walks through data of patent publication US20070123492A1, “Analogs of lysophosphatidic acid and methods of making and using thereof” (priority 2003, published 2007).

For one assay, the target named is T1, LPA2 (Homo sapiens, UniProt Q9HBW0).
T1 construct: expressed in transfected cells; host or cells: insect cells
Put plainly: Agonist/antagonist activity in insect cells expressing LPA2. It counts as cell-based.

A further assay has as its system (18:1) LPA pain response. Put plainly: (18:1) LPA pain response. Particulars: preliminary results. Type of assay: in vivo.
Assay [1] has as its target T2, LPA3 (Homo sapiens, UniProt Q9UBY5).
T2 sequence (Q9UBY5 1-353): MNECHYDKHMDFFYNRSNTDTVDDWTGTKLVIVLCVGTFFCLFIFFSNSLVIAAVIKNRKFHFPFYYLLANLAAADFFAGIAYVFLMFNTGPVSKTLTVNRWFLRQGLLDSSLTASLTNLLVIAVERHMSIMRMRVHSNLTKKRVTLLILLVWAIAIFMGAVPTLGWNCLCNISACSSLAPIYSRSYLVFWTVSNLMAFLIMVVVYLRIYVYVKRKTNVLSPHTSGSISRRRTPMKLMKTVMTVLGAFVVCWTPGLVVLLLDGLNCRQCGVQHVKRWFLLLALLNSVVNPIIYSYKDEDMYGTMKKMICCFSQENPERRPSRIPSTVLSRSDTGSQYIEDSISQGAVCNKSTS
The experiment in a line: Agonist/antagonist activity in insect cells expressing LPA3. It counts as cell-based. On the set-up: expressed in transfected cells; host or cells: insect cells.

In the next assay the target is T3, LPA1 (Homo sapiens, UniProt Q92633).
T3 construct: expressed in transfected cells; host or cells: insect cells
Put plainly: Agonist/antagonist activity in insect cells expressing LPA1. It counts as cell-based.

For the next assay, the system named is platelets. The experiment in a line: Platelet activation by fluorinated LPA analogues. Type of assay: cell-based. Particulars: preliminary results.
Assay [2] addresses T2, LPA3. The experiment in a line: Potency on the LPA3 receptor. Particulars: preliminary data. Type of assay: cell-based.
The target in a further assay is Edg7/LPA3 (Homo sapiens, UniProt Q9UBY5). Particulars: Edg7/LPA3 as compared to Edg2/LPA1 or Edg4/LPA2; cited from earlier work.
A further assay relates to LPA receptor. Particulars: Xenopus oocytes; cited from earlier work.

T3 sequence (Q92633 whole entry, species assumed): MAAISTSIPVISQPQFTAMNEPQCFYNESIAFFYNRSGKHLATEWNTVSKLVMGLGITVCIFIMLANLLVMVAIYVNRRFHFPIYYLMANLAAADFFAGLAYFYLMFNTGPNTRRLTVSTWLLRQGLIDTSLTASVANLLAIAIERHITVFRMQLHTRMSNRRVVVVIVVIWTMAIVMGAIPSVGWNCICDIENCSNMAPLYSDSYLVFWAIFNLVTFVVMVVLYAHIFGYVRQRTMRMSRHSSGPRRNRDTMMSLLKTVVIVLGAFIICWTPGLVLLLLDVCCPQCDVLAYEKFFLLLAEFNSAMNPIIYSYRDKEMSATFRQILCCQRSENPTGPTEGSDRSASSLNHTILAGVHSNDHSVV
T1 sequence (Q9HBW0 whole entry, species assumed): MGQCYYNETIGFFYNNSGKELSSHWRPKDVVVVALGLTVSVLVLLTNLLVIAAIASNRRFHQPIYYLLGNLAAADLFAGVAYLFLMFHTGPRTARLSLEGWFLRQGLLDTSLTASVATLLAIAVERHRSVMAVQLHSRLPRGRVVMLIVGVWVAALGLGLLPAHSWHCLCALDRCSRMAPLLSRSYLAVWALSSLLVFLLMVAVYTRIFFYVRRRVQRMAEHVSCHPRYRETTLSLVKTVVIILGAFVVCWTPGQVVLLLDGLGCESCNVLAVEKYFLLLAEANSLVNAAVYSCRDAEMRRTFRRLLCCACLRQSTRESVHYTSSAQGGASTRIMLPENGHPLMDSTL

Take `CCCCCCCC/C=C\CCCCCCCC(=O)O[C@H](CF)COP(=O)(O)O` [Compound 1a, 1-Phospho-2(S)-(oleoyl)-3-fluorine-propane-1,2-diol]: the “agonist or antagonist activity” value on LPA2, on LPA3 [1] and at LPA1 was “failed to show either significant agonist or antagonist activity” throughout. Also, the “agonism of the (18:1) LPA pain response” value in the assay with (18:1) LPA pain response is “partial agonists”. For the same compound, the “ability to activate platelets” value with platelets was “able to activate platelets”.

In the case of `CCCCCCCCCCCCCCCC(=O)O[C@H](CF)COP(=O)(O)O` [Compound 1b, 1-Phospho-2(S)-(palmitoyl)-3-fluorine-propane-1,2-diol], the “agonist or antagonist activity” value on LPA2, on LPA3 [1] and at LPA1 was “failed to show either significant agonist or antagonist activity” in each case. Moreover, the “agonism of the (18:1) LPA pain response” value with (18:1) LPA pain response is reported as “partial agonists”. Moreover, the “ability to activate platelets” value in the assay with platelets is on record as “able to activate platelets”.

Turning to `CCCCCCCC/C=C\CCCCCCCC(=O)O[C@H](CF)COP(=O)(O)O` [Compound 1c, 1-Phospho-2(S)-(oleoyl)-3-fluorine-propane-1,2-diol], the “potency on LPA3 relative to 1a (R)” value at LPA3 [2] (relative to 1a (R)) is reported as “approximately 100 fold”. Moreover, the “potency relative to natural 18:1 LPA on the LPA3 receptor” value on LPA3 [2] was “somewhat more potent”.

In the case of `CCCCCCCC/C=C\CCCCCCCC(=O)OC[C@@H](COP(O)(O)=S)OC` [OMPT], the receptor subtype selectivity entry at Edg7/LPA3 is given as “preferred selectivity for Edg7/LPA3”.

For the compound `CCCCCCCCCCCCCCCC(=O)NC(COP(=O)(O)O)C(=O)O` (centres unmarked) [compound 33], in the assay with LPA receptor, the “antagonism of LPA receptor function” value is “potent competitive antagonists”.

Take `CCCCCCCCCCCCCCCC(=O)NC(Cc1ccc(OP(=O)(O)O)cc1)C(=O)O` (centres unmarked) [compound 34]: the “antagonism of LPA receptor function” value in the assay on LPA receptor is recorded as “potent competitive antagonists”.

On to “[1-Fluoro-3(S)-hydroxyl-4-(oleoyloxy)butyl]phosphonate [Compound 3aa]”, for which, on LPA3 [2] (relative to 3ab (R)), the “potency on LPA3 relative to 3ab (R)” value is reported as “approximately 100 fold”. For the same compound, the “potency relative to natural 18:1 LPA on the LPA3 receptor” value at LPA3 [2] is 1000 fold.
